Experimental findings from publication PMC8230565, “Bisavenathramide Analogues as Nrf2 Inductors and Neuroprotectors in In Vitro Models of Oxidative Stress and Hyperphosphorylation” (Antioxidants, 2021) are described below.

The nature of test [1]: DPPH radical scavenging assay. The conditions noted are these: n in brackets. As for the experimental part: The direct antioxidant effects of compounds 3 were investigated by studying their radical-scavenging effect on the 2,2-diphenyl-1-picrylhydrazyl free radical (DPPH^•). Thus, a 100 μL volume of a methanol solution of each compound was added to 200 μL of 100 μM methanolic DPPH^•, and the solution was kept in the dark at 37 °C for 30 min in a 96-well microliter plate. After this incubation, the absorption at 490 nm of each solution was measured with a microplate reader in order to quantitate its decrease. A blank reading was also taken to calculate the amount of remaining DPPH^•. The radical-scavenging activity exerted by compounds 3 was determined by comparison with a 10 μL of MeOH-treated blank group. Ascorbic acid, a well-known antioxidant acting as a radical scavenger, was used as reference. All samples were analyzed in triplicate. Percent inhibition of the DPPH^• radical was calculated using the equation shown below, where AbsCtrl is the absorbance of the blank group and Abss is the absorbance of the samples containing compounds 3. For each compound showing a percentage of inhibition above 60%, the IC50 value was determined using a dose–response curve obtained from measurements corresponding to at least six concentrations. %Scavenger=AbsCtrl−AbsS/AbsCtrl×100
The radical scavenging activity of all compounds was first studied by the DPPH assay, which measures the ability of antioxidant compounds to donate a hydrogen atom to the violet 2,2-diphenyl-1-picrylhydrazyl radical and transform it into a nonradical species. Thus, it is generally considered to belong to the hydrogen atom transfer (HAT) category of methods for measurement of antioxidant activity.

Test [2] relates to SH-SY5Y cells. In words: Neuroprotection against rotenone/oligomycin A in SH-SY5Y cells (MTT). Type of test: cell-based. The conditions noted are these: Homo sapiens, 24 h, 1 µM compound, rotenone 30 µM + oligomycin A 10 µM, read-out: % Neuroprotection ± SEM at 1 µM (rotenone/oligomycin A). Here is the method: To evaluate the compounds for their neuroprotective effect in an oxidative stress model, we selected the rotenone (30 μM) and oligomycin A (10 μM) (R/O) cocktail, which disturbs the flow of electrons in the mitochondrial respiratory chain. Similarly, SH-SY5Y cells were preincubated with compounds 3 at 1 μM for 24 h. Then, they were co-incubated in the presence of R/O for a further 24 h, evaluating cell viability by the MTT reduction method.
Thus, the R/O combination constitutes a good model of oxidative stress and neurodegeneration with a mitochondrial origin, and has been broadly employed to evaluate potential hit compounds for the treatment of neurodegenerative diseases. Furthermore, treatment of laboratory animals with rotenone is known to induce many features associated to Parkinson’s disease, such as selective nigrostriatal dopaminergic degeneration and the appearance of α-synuclein cytoplasmic inclusions, which are associated with oxidative damage.

The test system of test [3] is SH-SY5Y cells. Nature of the test: Neuroprotection against okadaic acid in SH-SY5Y cells (MTT). The conditions noted are these: Homo sapiens, SH-SY5Y, 18 h; 1 µM compound; okadaic acid 20 nM; read-out: % Neuroprotection ± SEM at 1 µM (okadaic acid). The format is cell-based. As for the experimental part:
Neuroprotection studies against tau hyperphosphorylation exerted by okadaic acid (OA) were evaluated using the SH-SY5Y cell line as follows. […] After 18 h, cell viability was addressed by the MTT reduction method. MTT (5 mg/mL, 10 μL/well) was added and incubated for 2 h. Then, the medium was removed and the purple formazan crystals formed by viable cells were dissolved using 100 μL of DMSO. A FluoStar Optima spectrophotometer (BMG Labtech, Ortenberg, Baden-Württemberg, Germany) was used to measure the absorbance at 570 nm.
Okadaic acid is a potent inhibitor of protein phosphatase 2A (PP2A), thereby inducing tau hyperphosphorylation. For this reason, it can be employed as a model of neurodegenerative-disease-connected tau hyperphosphorylation, a well-known feature of Alzheimer’s disease, but present also in other NDDs, collectively known as tauopathies and characterized by the pathological aggregation of hyperphosphorylated tau in neurofibrillary tangles. […] Tau hyperphosphorylation is connected to oxidative stress, which activates p38 and deactivates calcineurin, a phosphatase involved in tau dephosphorylation by increasing RCAN1, its natural repressor [34, 35]. Indeed, hyperphosphorylation and oxidative stress have been proposed to generate a vicious circle that is critical to the advance of neurodegenerative tauopathies.

Test [4] in a line: Ferric reducing antioxidant power (FRAP) assay. The conditions noted are these: for FRAP nmol Fe2+ at 30 µM: 30 µM compound, n in brackets; for FRAP TEAC: 30 µM, relative to trolox. Further details: key to FRAP TEAC: trolox equivalents (TEAC), relative to trolox. Here is the method:
A ferric reducing antioxidant power (FRAP) kit assay purchased from Sigma-Aldrich (Madrid, Spain) was employed for the experiments. The antioxidant solutions, FRAP assay buffer solution, FeCl3 solution, and FRAP probe solution were kept in ice during the preparation of the plate. A calibration standard curve was prepared by using the 2 mM ferrous standard solution provided in the FRAP kit assay. Appropriate aliquots of this solution were taken and diluted up to a 200 μL final volume with FRAP buffer. The final ferrous concentrations measured in the well were: 0, 20, 40, 60, 80, and 100 μM. Each concentration value was prepared and measured by triplicate. Stock solutions of compounds 3, as well as reference compounds trolox and ferulic acid, were freshly prepared in 95% ethanol at […]. Aliquots of 10 μL of compounds 3 and the reference compounds were mixed with 19 μL FeCl3 solution and 19 μL FRAP probe solution, and then completed to a final volume of 200 μL with FRAP assay buffer solution. The final concentration of antioxidants and references was 30 μM. Compounds 3, reference compounds, as well as the corresponding blank solutions (one for each compound to be assayed, avoiding the chromogenic FRAP probe), and positive control were thoroughly mixed in vortex for 1–2 min with the reaction chromogenic media, and then were incubated under darkness at 37 °C in the dry bath, and using the device for support well-plates. Each compound to be assayed and the reference antioxidant compounds were prepared and measured by triplicate. The absorbance values were measured at 594 nm after 5 min of reaction and, to assure complete reaction, the absorbance values after 60 min of incubation at 37 °C in the dry bath were also measured. The absorbance values of the sample antioxidant compounds were corrected by subtracting the corresponding absorbance values of the blanks, and then they were introduced in the calibration curve and the ferrous equivalents were determined. The reference antioxidants employed for this assay were trolox and ferulic acid, which were obtained from Sigma-Aldrich (Madrid, Spain). Ultrapure water was obtained from a Milli-Q Direct 8 system (Millipore, Molsheim, France).
In order to achieve a broader insight into the antioxidant profile of our compounds, we also examined them using a single electron transfer (SET)-based method, namely the ferric reducing antioxidant power (FRAP) assay, which measures the ability of an antioxidant to reduce the ferric ion in the TPTZ (2,4,6-tri(2-pyridyl)-1,3,5-triazine)-Fe(III) complex.

A word on the IC50: it is the concentration that gives 50% inhibition.

Compound `O=C1O[C@H]([C@@H](O)CO)C(O)=C1O` [Ascorbic acid, reference compound] registered an IC50 in test [1] of 16.2 ± 0.7 µM.

`COc1ccc2[nH]cc(CCNC(C)=O)c2c1` [Melatonin, reference compound]: the % neuroprotection against rotenone/oligomycin A toxicity at 1 µM in the test with SH-SY5Y cells [2] amounted to 61.4 ± 8.75%. Further, the % neuroprotection against okadaic acid at 1 µM in the test with SH-SY5Y cells [3] worked out at 67.7 ± 13.9%.

For `Cc1c(C)c2c(c(C)c1O)CCC(C)(C(=O)O)O2` (centres unmarked) [Trolox, reference compound], in test [4], the “FRAP nmol Fe2+ at 30 µM” value is 2.28 ± 0.15 (9) nmol Fe^2+ and the “FRAP TEAC” value is 1.00. The same compound displayed an IC50 in test [1] of 11.4 ± 1 µM.

Take `COc1cc(/C=C/C(=O)O)ccc1O` [Ferulic acid, reference compound]: in test [4], the “FRAP nmol Fe2+ at 30 µM” value was 1.98 ± 0.04 (3) nmol Fe^2+ and the “FRAP TEAC” value is 0.87.
